In patent publication US20040156869A1, “2-substituted quinazolin-4-ylamine analogues” (Neurogen Corporation, priority 2002, published 2004):

The compounds below were run against human capsaicin receptor (VR1) (Homo sapiens, UniProt Q8NER1) (assay: Capsaicin receptor binding assay ([3H]RTX competition, VR1-transfected HEK293 membranes)).
human capsaicin receptor (VR1), sequence (Q8NER1 whole entry): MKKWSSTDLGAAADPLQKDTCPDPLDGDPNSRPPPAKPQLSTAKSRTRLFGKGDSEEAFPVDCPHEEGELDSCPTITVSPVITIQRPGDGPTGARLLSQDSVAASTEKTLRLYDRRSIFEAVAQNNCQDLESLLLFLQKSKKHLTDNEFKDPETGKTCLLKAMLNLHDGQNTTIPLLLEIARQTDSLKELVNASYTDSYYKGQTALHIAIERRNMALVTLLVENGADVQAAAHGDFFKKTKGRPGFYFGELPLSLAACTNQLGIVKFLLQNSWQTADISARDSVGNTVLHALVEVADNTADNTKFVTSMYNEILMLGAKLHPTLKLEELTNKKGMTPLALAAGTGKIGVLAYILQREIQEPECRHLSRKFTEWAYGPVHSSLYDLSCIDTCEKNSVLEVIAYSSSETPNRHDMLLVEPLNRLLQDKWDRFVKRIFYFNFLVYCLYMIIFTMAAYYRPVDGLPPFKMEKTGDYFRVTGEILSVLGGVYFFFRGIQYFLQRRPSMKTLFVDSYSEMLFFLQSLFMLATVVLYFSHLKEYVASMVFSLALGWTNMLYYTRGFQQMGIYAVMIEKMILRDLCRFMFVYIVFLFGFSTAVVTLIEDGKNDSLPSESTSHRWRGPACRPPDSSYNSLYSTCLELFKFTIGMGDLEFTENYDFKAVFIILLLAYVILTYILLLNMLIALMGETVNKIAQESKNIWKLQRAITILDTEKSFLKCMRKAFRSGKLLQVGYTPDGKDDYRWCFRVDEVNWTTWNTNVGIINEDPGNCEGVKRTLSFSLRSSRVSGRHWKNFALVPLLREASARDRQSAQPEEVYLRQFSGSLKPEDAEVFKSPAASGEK

Ki | Compound
< 1000 nM | COCc1nc(Nc2ccc(OC(F)(F)F)cc2)c2ccc(-c3ncccc3Cl)nc2n1 [Compound 195, [7-(3-Chloro-pyridin-2-yl)-2-methoxymethyl-pyrido[2,3-d]pyrimidin-4-yl]-(4-trifluoromethoxy-phenyl)-amine]
< 1000 nM | COCc1nc(Nc2ccc(OC(F)(F)F)cc2)c2ccc(-c3ncccc3C)nc2n1 [Compound 196, [2-Methoxymethyl-7-(3-methyl-pyridin-2-yl)-pyrido[2,3-d]pyrimidin-4-yl]-(4-trifluoromethoxy-phenyl)-amine]
< 1000 nM | COCc1nc(Nc2ccc(C(F)(F)F)c(C)c2)c2ccc(-c3ncccc3Cl)nc2n1 [Compound 197, [7-(3-Chloro-pyridin-2-yl)-2-methoxymethyl-pyrido[2,3-d]pyrimidin-4-yl]-(3-methyl-4-trifluoromethyl-phenyl)-amine]
< 1000 nM | COCc1nc(Nc2ccc(C(F)(F)F)c(C)c2)c2ccc(-c3ncccc3C)nc2n1 [Compound 198, [2-Methoxymethyl-7-(3-methyl-pyridin-2-yl)-pyrido[2,3-d]pyrimidin-4-yl]-(3-methyl-4-trifluoromethyl-phenyl)-amine]
< 1000 nM | COCc1nc(Nc2ccc(C(C)(C)C)nc2)c2ccc(-c3ncccc3Cl)nc2n1 [Compound 199, (6-tert-Butyl-pyridin-3-yl)-[7-(3-chloro-pyridin-2-yl)-2-methoxymethyl-pyrido[2,3-d]pyrimidin-4-yl]-amine]
< 1000 nM | COCc1nc(Nc2ccc(C(C)(C)C)nc2)c2ccc(-c3ncccc3C)nc2n1 [Compound 200, (6-tert-Butyl-pyridin-3-yl)-[2-methoxymethyl-7-(3-methyl-pyridin-2-yl)-pyrido[2,3-d]pyrimidin-4-yl]-amine]
< 1000 nM | CC(C)(C)c1ccc(Nc2nc(CO)nc3cc(-c4ncccc4C(F)(F)F)cnc23)cc1 [Compound 201, [4-(4-tert-Butyl-phenylamino)-7-(3-trifluoromethyl-pyridin-2-yl)-pyrido[3,2-d]pyrimidin-2-yl]-methanol]
< 1000 nM | O=S(=O)(c1ccc(Nc2nc(CO)nc3cc(-c4ncccc4C(F)(F)F)cnc23)cc1)N1CCCCC1 [Compound 202, [4-[4-(Piperidine-1-sulfonyl)-phenylamino]-7-(3-trifluoromethyl-pyridin-2-yl)-pyrido[3,2-d]pyrimidin-2-yl]-methanol]
< 1000 nM | CN(C(C)(C)C)S(=O)(=O)c1ccc(Nc2nc(CO)nc3cc(-c4ncccc4C(F)(F)F)cnc23)cc1 [Compound 203, N-tert-Butyl-4-[2-hydroxymethyl-7-(3-trifluoromethyl-pyridin-2-yl)-pyrido[3,2-d]pyrimidin-4-ylamino]-N-methyl-benzenesulfonamide]
< 1000 nM | Cc1cccnc1-c1ccc2c(Nc3ccc(C(C)(C)C)cc3)nc(CO)nc2n1 [Compound 204, [4-(4-tert-Butyl-phenylamino)-7-(3-methyl-pyridin-2-yl)-pyrido[2,3d]pyrimidin-2-yl]-methanol]
< 1000 nM | Cc1cccnc1-c1ccc2c(Nc3ccc(C(F)(F)F)cc3)nc(C(=O)O)nc2n1 [Compound 205, 7-(3-Methyl-pyridin-2-yl)-4-(4-trifluoromethyl-phenylamino)-pyrido[2,3-d]pyrimidine-2-carboxylic acid]
< 1000 nM | O=C(O)c1nc(Nc2ccc(C(F)(F)F)cc2)c2ccc(-c3ncccc3C(F)(F)F)nc2n1 [Compound 206, 4-(4-Trifluoromethyl-phenylamino)-7-(3-trifluoromethyl-pyridin-2-yl)-pyrido[2,3-d]pyrimidine-2-carboxylic acid]
< 1000 nM | Cc1cccnc1-c1ccc2c(Nc3ccc(C(C)(C)C)cc3)nc(C(=O)O)nc2n1 [Compound 207, 4-(4-tert-Butyl-phenylamino)-7-(3-methyl-pyridin-2-yl)-pyrido[2,3-d]pyrimidine-2-carboxylic acid]
< 1000 nM | COCc1nc(Nc2ccc(C(C)(C)C(C)=O)cc2)c2ccc(-c3ncccc3C(F)(F)F)nc2n1 [Compound 208, 3-{4-[2-Methoxymethyl-7-(3-trifluoromethyl-pyridin-2-yl)-pyrido[2,3-d]pyrimidin-4-ylamino]-phenyl}-3-methyl-butan-2-one]
< 1000 nM | COCc1nc(Nc2ccc(C(C)(C)C(C)=O)cc2)c2ccc(-c3ncccc3C)nc2n1 [Compound 212, 3-{4-[2-Methoxymethyl-7-(3-methyl-pyridin-2-yl)-pyrido[2,3-d]pyrimidin-4-ylamino]-phenyl}-3-methyl-butan-2-one]
< 1000 nM | COCc1nc(Nc2ccc(C(C)(C)C(C)=O)cc2)c2ccc(-c3ncccc3Cl)nc2n1 [Compound 213, 3-{4-[7-(3-Chloro-pyridin-2-yl)-2-methoxymethyl-pyrido[2,3-d]pyrimidin-4-ylamino]-phenyl}-3-methyl-butan-2-one]
< 1000 nM | CC(C)(C)c1ccc(Nc2nc(C(C)(C)CO)nc3cc(-c4ncccc4C(F)(F)F)ccc23)cc1 [Compound 217, 2-[4-(4-tert-Butyl-phenylamino)-7-(3-trifluoromethyl-pyridin-2-yl)-quinazolin-2-yl]-2-methyl-propan-1-ol]
< 1000 nM | CC(C)(CO)c1nc(Nc2ccc(C(F)(F)F)cc2)c2ccc(-c3ncccc3C(F)(F)F)cc2n1 [Compound 218, 2-Methyl-2-[4-(4-trifluoromethyl-phenylamino)-7-(3-trifluoromethyl-pyridin-2-yl)-quinazolin-2-yl]-propan-1-ol]
< 1000 nM | CCOC(=O)c1nc(Nc2ccc(C(C)(C)C)cc2)c2ccc(-c3ncccc3C(F)(F)F)nc2n1 [Compound 219, 4-(4-tert-Butyl-phenylamino)-7-(3-trifluoromethyl-pyridin-2-yl)-pyrido[2,3-d]pyrimidine-2-carboxylic acid ethyl ester]
< 1000 nM | CC(C)(C)c1ccc(Nc2nc(C(=O)O)nc3nc(-c4ncccc4C(F)(F)F)ccc23)cc1 [Compound 220, 4-(4-tert-Butyl-phenylamino)-7-(3-trifluoromethyl-pyridin-2-yl)-pyrido[2,3-d]pyrimidine-2-carboxylic acid]
< 1000 nM | CCN(CC)C(=O)C(C)(C)c1ccc(Nc2nc(COC)nc3nc(-c4ncccc4C(F)(F)F)ccc23)cc1 [Compound 221, N,N-Diethyl-2-{4-[2-methoxymethyl-7-(3-trifluoromethyl-pyridin-2-yl)-pyrido[2,3-d]pyrimidin-4-ylamino]-phenyl}-isobutyramide]
< 1000 nM | CCOCc1nc(Nc2ccc(C(F)(F)F)cc2)c2ccc(-c3ncccc3C(F)(F)F)nc2n1 [Compound 223, [2-Ethoxymethyl-7-(3-trifluoromethyl-pyridin-2-yl)-pyrido[2,3-d]pyrimidin-4-yl]-(4-trifluoromethyl-phenyl)-amine]
< 1000 nM | CCOCc1nc(Nc2ccc(C(F)(F)F)nc2)c2ccc(-c3ncccc3C(F)(F)F)nc2n1 [Compound 224, [2-Ethoxymethyl-7-(3-trifluoromethyl-pyridin-2-yl)-pyrido[2,3-d]pyrimidin-4-yl]-(6-trifluoromethyl-pyridin-3-yl)-amine]

Compound | Ki
CC(C)COCc1nc(Nc2ccc(C(C)(C)C)nc2)c2ccc(-c3ncccc3C(F)(F)F)nc2n1 [Compound 192, (6-tert-Butyl-pyridin-3-yl)-[2-isobutoxymethyl-7-(3-trifluoromethyl-pyridin-2-yl)-pyrido[2,3-d]pyrimidin-4-yl]-amine] | < 1000 nM
Cc1cccnc1-c1ccc2c(Nc3ccc(C(C)(C)C)nc3)nc(COCC(C)C)nc2n1 [Compound 193, (6-tert-Butyl-pyridin-3-yl)-[2-isobutoxymethyl-7-(3-methyl-pyridin-2-yl)-pyrido[2,3-d]pyrimidin-4-yl]-amine] | < 1000 nM
CC(C)COCc1nc(Nc2ccc(C(C)(C)C)nc2)c2ccc(-c3ncccc3Cl)nc2n1 [Compound 194, (6-tert-Butyl-pyridin-3-yl)-[7-(3-chloro-pyridin-2-yl)-2-isobutoxymethyl-pyrido[2,3-d]pyrimidin-4-yl]-amine] | < 1000 nM
CC(=O)C(C)(C)c1ccc(Nc2nc(COCC(C)C)nc3nc(-c4ncccc4C)ccc23)cc1 [Compound 209, 3-{4-[2-Isobutoxymethyl-7-(3-methyl-pyridin-2-yl)-pyrido[2,3-d]pyrimidin-4-ylamino]-phenyl}-3-methyl-butan-2-one] | < 1000 nM
CC(=O)C(C)(C)c1ccc(Nc2nc(COCC(C)C)nc3nc(-c4ncccc4Cl)ccc23)cc1 [Compound 210, 3-{4-[7-(3-Chloro-pyridin-2-yl)-2-isobutoxymethyl-pyrido[2,3-d]pyrimidin-4-ylamino]-phenyl}-3-methyl-butan-2-one] | < 1000 nM
CC(=O)C(C)(C)c1ccc(Nc2nc(COCC(C)C)nc3nc(-c4ncccc4C(F)(F)F)ccc23)cc1 [Compound 211, 3-{4-[2-Isobutoxymethyl-7-(3-trifluoromethyl-pyridin-2-yl)-pyrido[2,3-d]pyrimidin-4-ylamino]-phenyl}-3-methyl-butan-2-one] | < 1000 nM
CC(C)COCc1nc(Nc2ccc(S(C)(=O)=O)cc2)c2ccc(-c3ncccc3C(F)(F)F)nc2n1 [Compound 214, [2-Isobutoxymethyl-7-(3-trifluoromethyl-pyridin-2-yl)-pyrido[2,3-d]pyrimidin-4-yl]-(4-methanesulfonyl-phenyl)-amine] | < 1000 nM
COCC(C)(C)c1ccc(Nc2nc(COCC(C)C)nc3nc(-c4ncccc4C)ccc23)cc1 [Compound 215, [2-Isobutoxymethyl-7-(3-methyl-pyridin-2-yl)-pyrido[2,3-d]pyrimidin-4-yl]-[4-(2-methoxy-1,1-dimethyl-ethyl)-phenyl]-amine] | < 1000 nM
Cc1cccnc1-c1ccc2c(Nc3ccc(S(C)(=O)=O)cc3)nc(COCC(C)C)nc2n1 [Compound 216, [2-Isobutoxymethyl-7-(3-methyl-pyridin-2-yl)-pyrido[2,3-d]pyrimidin-4-yl]-(4-methanesulfonyl-phenyl)-amine] | < 1000 nM
CCN(CC)C(=O)C(C)(C)c1ccc(Nc2nc(COCC(C)C)nc3nc(-c4ncccc4C)ccc23)cc1 [Compound 222, N,N-Diethyl-2-{4-[2-isobutoxymethyl-7-(3-methyl-pyridin-2-yl)-pyrido[2,3-d]pyrimidin-4-ylamino]-phenyl}-isobutyramide] | < 1000 nM
